Laboratory results published in the kinase profiling compilation of Christmann-Franck et al. (2016).

biological target: AURKA (human) (UniProt O14965); assay: radiometric filter-binding kinase assay, Kinase HotSpot; settings: compound 0.5 µM; ATP 10 µM
Sequence (O14965 whole entry, looked up): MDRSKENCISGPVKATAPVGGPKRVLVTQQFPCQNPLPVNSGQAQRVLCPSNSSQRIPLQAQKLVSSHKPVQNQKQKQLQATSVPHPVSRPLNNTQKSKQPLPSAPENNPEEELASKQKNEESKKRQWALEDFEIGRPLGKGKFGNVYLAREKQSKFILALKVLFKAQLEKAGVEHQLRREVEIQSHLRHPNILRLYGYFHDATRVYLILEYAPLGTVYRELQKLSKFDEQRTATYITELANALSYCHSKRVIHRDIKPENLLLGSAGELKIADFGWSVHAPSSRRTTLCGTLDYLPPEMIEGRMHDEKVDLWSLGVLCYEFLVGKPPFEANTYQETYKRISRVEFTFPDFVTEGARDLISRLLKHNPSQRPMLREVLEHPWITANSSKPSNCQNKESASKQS

| Structure (SMILES) | residual activity [%] |
| --- | --- |
| FC(F)(F)c1ccc(/C=C/c2nc(COc3ccc(CCCCn4ccnn4)cc3)co2)cc1 | 111 |
| COc1cc2ncnc(Nc3ccc(O)c(Br)c3)c2cc1OC | 83.1 |
| CCOc1cc2ncnc(Nc3cccc(Br)c3)c2cc1OCC | 110 |
| O=C1NC(=O)c2c1c1c3ccccc3[nH]c1c1[nH]c3cc(Br)ccc3c21 | 60.7 |

biological target: AURKB (human) (UniProt Q96GD4); assay: as above; settings: compound 0.5 µM; ATP 10 µM

| Structure (SMILES) | residual activity [%] |
| --- | --- |
| FC(F)(F)c1ccc(/C=C/c2nc(COc3ccc(CCCCn4ccnn4)cc3)co2)cc1 | 98 |
| COc1cc2ncnc(Nc3ccc(O)c(Br)c3)c2cc1OC | 63.5 |
| CCOc1cc2ncnc(Nc3cccc(Br)c3)c2cc1OCC | 91.9 |
| O=C1NC(=O)c2c1c1c3ccccc3[nH]c1c1[nH]c3cc(Br)ccc3c21 | 44.3 |

biological target: CLK2 (human) (UniProt P49760); assay: as above; settings: compound 0.5 µM; ATP 10 µM

| Structure (SMILES) | residual activity [%] |
| --- | --- |
| FC(F)(F)c1ccc(/C=C/c2nc(COc3ccc(CCCCn4ccnn4)cc3)co2)cc1 | 89.6 |
| COc1cc2ncnc(Nc3ccc(O)c(Br)c3)c2cc1OC | 96.7 |
| CCOc1cc2ncnc(Nc3cccc(Br)c3)c2cc1OCC | 92.6 |
| O=C1NC(=O)c2c1c1c3ccccc3[nH]c1c1[nH]c3cc(Br)ccc3c21 | 84.7 |

biological target: CSNK1D (human) (UniProt P48730); assay: as above; settings: compound 0.5 µM; ATP 10 µM

| Structure (SMILES) | residual activity [%] |
| --- | --- |
| FC(F)(F)c1ccc(/C=C/c2nc(COc3ccc(CCCCn4ccnn4)cc3)co2)cc1 | 96.6 |
| COc1cc2ncnc(Nc3ccc(O)c(Br)c3)c2cc1OC | 89.7 |
| CCOc1cc2ncnc(Nc3cccc(Br)c3)c2cc1OCC | 103 |
| O=C1NC(=O)c2c1c1c3ccccc3[nH]c1c1[nH]c3cc(Br)ccc3c21 | 96.9 |

biological target: DAPK2 (human) (UniProt Q9UIK4); assay: as above; settings: compound 0.5 µM; ATP 10 µM

| Structure (SMILES) | residual activity [%] |
| --- | --- |
| FC(F)(F)c1ccc(/C=C/c2nc(COc3ccc(CCCCn4ccnn4)cc3)co2)cc1 | 107 |
| COc1cc2ncnc(Nc3ccc(O)c(Br)c3)c2cc1OC | 100 |
| CCOc1cc2ncnc(Nc3cccc(Br)c3)c2cc1OCC | 103 |
| O=C1NC(=O)c2c1c1c3ccccc3[nH]c1c1[nH]c3cc(Br)ccc3c21 | 98.4 |

biological target: EPHB2 (human) (UniProt P29323); assay: as above; settings: compound 0.5 µM; ATP 10 µM

| Structure (SMILES) | residual activity [%] |
| --- | --- |
| FC(F)(F)c1ccc(/C=C/c2nc(COc3ccc(CCCCn4ccnn4)cc3)co2)cc1 | 98.3 |
| COc1cc2ncnc(Nc3ccc(O)c(Br)c3)c2cc1OC | 66.1 |
| CCOc1cc2ncnc(Nc3cccc(Br)c3)c2cc1OCC | 77 |
| O=C1NC(=O)c2c1c1c3ccccc3[nH]c1c1[nH]c3cc(Br)ccc3c21 | 99.5 |

biological target: ERBB4 (human) (UniProt Q15303); assay: as above; settings: compound 0.5 µM; ATP 10 µM

| Structure (SMILES) | residual activity [%] |
| --- | --- |
| FC(F)(F)c1ccc(/C=C/c2nc(COc3ccc(CCCCn4ccnn4)cc3)co2)cc1 | 99.6 |
| COc1cc2ncnc(Nc3ccc(O)c(Br)c3)c2cc1OC | 29.1 |
| CCOc1cc2ncnc(Nc3cccc(Br)c3)c2cc1OCC | 34.3 |
| O=C1NC(=O)c2c1c1c3ccccc3[nH]c1c1[nH]c3cc(Br)ccc3c21 | 101 |

biological target: FGFR2 (human) (UniProt P21802); assay: as above; settings: compound 0.5 µM; ATP 10 µM

| Structure (SMILES) | residual activity [%] |
| --- | --- |
| FC(F)(F)c1ccc(/C=C/c2nc(COc3ccc(CCCCn4ccnn4)cc3)co2)cc1 | 96.7 |
| COc1cc2ncnc(Nc3ccc(O)c(Br)c3)c2cc1OC | 95.9 |
| CCOc1cc2ncnc(Nc3cccc(Br)c3)c2cc1OCC | 96.3 |
| O=C1NC(=O)c2c1c1c3ccccc3[nH]c1c1[nH]c3cc(Br)ccc3c21 | 98.4 |

biological target: FGFR3 (human) (UniProt P22607); assay: as above; settings: compound 0.5 µM; ATP 10 µM

| Structure (SMILES) | residual activity [%] |
| --- | --- |
| FC(F)(F)c1ccc(/C=C/c2nc(COc3ccc(CCCCn4ccnn4)cc3)co2)cc1 | 88.4 |
| COc1cc2ncnc(Nc3ccc(O)c(Br)c3)c2cc1OC | 98.8 |
| CCOc1cc2ncnc(Nc3cccc(Br)c3)c2cc1OCC | 103 |
| O=C1NC(=O)c2c1c1c3ccccc3[nH]c1c1[nH]c3cc(Br)ccc3c21 | 86.2 |

biological target: FLT3 (human) (UniProt P36888); assay: as above; settings: compound 0.5 µM; ATP 10 µM

| Structure (SMILES) | residual activity [%] |
| --- | --- |
| FC(F)(F)c1ccc(/C=C/c2nc(COc3ccc(CCCCn4ccnn4)cc3)co2)cc1 | 87.8 |
| COc1cc2ncnc(Nc3ccc(O)c(Br)c3)c2cc1OC | 6.34 |
| CCOc1cc2ncnc(Nc3cccc(Br)c3)c2cc1OCC | 29 |
| O=C1NC(=O)c2c1c1c3ccccc3[nH]c1c1[nH]c3cc(Br)ccc3c21 | 8.19 |

biological target: FYN (human) (UniProt P06241); assay: as above; settings: compound 0.5 µM; ATP 10 µM

| Structure (SMILES) | residual activity [%] |
| --- | --- |
| FC(F)(F)c1ccc(/C=C/c2nc(COc3ccc(CCCCn4ccnn4)cc3)co2)cc1 | 97 |
| COc1cc2ncnc(Nc3ccc(O)c(Br)c3)c2cc1OC | 80.4 |
| CCOc1cc2ncnc(Nc3cccc(Br)c3)c2cc1OCC | 78.9 |
| O=C1NC(=O)c2c1c1c3ccccc3[nH]c1c1[nH]c3cc(Br)ccc3c21 | 95.2 |

biological target: GRK5 (human) (UniProt P34947); assay: as above; settings: compound 0.5 µM; ATP 10 µM

| Structure (SMILES) | residual activity [%] |
| --- | --- |
| FC(F)(F)c1ccc(/C=C/c2nc(COc3ccc(CCCCn4ccnn4)cc3)co2)cc1 | 109 |
| COc1cc2ncnc(Nc3ccc(O)c(Br)c3)c2cc1OC | 101 |
| CCOc1cc2ncnc(Nc3cccc(Br)c3)c2cc1OCC | 104 |
| O=C1NC(=O)c2c1c1c3ccccc3[nH]c1c1[nH]c3cc(Br)ccc3c21 | 97 |

biological target: GSK3A (human) (UniProt P49840); assay: as above; settings: compound 0.5 µM; ATP 10 µM
Sequence (P49840 whole entry, looked up): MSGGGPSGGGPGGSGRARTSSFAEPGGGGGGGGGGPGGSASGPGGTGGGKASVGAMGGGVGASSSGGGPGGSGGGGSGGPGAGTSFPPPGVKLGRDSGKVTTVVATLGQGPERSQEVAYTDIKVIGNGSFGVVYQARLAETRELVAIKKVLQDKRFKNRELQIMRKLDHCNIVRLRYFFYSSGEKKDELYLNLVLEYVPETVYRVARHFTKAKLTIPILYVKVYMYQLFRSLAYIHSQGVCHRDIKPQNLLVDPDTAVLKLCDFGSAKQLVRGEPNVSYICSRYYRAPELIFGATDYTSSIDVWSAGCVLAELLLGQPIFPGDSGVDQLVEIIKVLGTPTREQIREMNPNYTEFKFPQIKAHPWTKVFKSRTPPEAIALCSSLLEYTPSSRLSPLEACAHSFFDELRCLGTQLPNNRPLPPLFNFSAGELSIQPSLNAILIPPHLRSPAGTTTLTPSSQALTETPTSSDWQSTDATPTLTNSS

| Structure (SMILES) | residual activity [%] |
| --- | --- |
| FC(F)(F)c1ccc(/C=C/c2nc(COc3ccc(CCCCn4ccnn4)cc3)co2)cc1 | 102 |
| COc1cc2ncnc(Nc3ccc(O)c(Br)c3)c2cc1OC | 131 |
| CCOc1cc2ncnc(Nc3cccc(Br)c3)c2cc1OCC | 110 |
| O=C1NC(=O)c2c1c1c3ccccc3[nH]c1c1[nH]c3cc(Br)ccc3c21 | 33.9 |

biological target: HIPK1 (human) (UniProt Q86Z02); assay: as above; settings: compound 0.5 µM; ATP 10 µM
Sequence (Q86Z02 whole entry, looked up): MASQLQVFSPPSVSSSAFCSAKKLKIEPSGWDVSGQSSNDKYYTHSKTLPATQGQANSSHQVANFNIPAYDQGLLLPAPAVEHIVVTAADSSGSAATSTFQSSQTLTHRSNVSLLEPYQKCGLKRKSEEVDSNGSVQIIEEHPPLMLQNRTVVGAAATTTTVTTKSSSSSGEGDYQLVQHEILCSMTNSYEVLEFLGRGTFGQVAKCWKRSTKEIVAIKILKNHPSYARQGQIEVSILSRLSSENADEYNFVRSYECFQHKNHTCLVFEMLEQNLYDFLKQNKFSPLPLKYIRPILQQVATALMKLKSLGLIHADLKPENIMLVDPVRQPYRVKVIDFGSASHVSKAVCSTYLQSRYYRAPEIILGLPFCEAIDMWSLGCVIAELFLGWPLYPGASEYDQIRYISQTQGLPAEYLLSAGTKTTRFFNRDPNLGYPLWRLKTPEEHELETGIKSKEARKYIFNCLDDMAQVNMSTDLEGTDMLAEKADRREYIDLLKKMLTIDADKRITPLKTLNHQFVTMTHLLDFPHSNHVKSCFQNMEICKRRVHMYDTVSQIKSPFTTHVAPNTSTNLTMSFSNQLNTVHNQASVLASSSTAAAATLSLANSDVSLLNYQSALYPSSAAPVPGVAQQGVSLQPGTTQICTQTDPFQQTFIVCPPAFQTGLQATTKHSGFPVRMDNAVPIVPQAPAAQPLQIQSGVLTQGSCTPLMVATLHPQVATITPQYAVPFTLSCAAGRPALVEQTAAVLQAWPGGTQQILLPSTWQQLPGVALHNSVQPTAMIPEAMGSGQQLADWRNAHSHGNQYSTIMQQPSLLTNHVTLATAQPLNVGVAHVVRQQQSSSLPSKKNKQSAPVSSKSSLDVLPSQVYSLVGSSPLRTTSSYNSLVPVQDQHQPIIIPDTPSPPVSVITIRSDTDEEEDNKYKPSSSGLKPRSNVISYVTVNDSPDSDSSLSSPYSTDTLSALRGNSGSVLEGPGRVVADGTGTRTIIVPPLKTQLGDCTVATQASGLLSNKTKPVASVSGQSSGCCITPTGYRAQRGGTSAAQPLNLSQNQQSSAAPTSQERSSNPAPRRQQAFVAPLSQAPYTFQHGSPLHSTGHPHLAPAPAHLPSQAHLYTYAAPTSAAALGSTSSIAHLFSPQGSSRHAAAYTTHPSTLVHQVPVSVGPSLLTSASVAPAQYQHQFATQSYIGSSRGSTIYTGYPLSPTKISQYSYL

| Structure (SMILES) | residual activity [%] |
| --- | --- |
| FC(F)(F)c1ccc(/C=C/c2nc(COc3ccc(CCCCn4ccnn4)cc3)co2)cc1 | 101 |
| COc1cc2ncnc(Nc3ccc(O)c(Br)c3)c2cc1OC | 104 |
| CCOc1cc2ncnc(Nc3cccc(Br)c3)c2cc1OCC | 104 |
| O=C1NC(=O)c2c1c1c3ccccc3[nH]c1c1[nH]c3cc(Br)ccc3c21 | 98.2 |

biological target: IRAK4 (human) (UniProt Q9NWZ3); assay: as above; settings: compound 0.5 µM; ATP 10 µM
Sequence (Q9NWZ3 whole entry, looked up): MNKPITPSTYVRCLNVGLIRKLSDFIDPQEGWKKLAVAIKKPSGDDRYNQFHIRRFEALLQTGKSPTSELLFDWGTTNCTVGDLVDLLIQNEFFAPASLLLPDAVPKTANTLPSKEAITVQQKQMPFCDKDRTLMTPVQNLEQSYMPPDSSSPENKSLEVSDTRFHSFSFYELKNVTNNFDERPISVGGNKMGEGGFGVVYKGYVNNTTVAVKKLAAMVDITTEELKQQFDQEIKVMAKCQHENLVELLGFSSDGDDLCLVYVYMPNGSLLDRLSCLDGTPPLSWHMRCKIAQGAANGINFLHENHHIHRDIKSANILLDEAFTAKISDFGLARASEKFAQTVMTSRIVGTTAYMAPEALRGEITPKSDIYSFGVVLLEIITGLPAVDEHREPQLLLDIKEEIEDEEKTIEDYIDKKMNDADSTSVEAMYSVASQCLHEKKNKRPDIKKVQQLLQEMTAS

| Structure (SMILES) | residual activity [%] |
| --- | --- |
| FC(F)(F)c1ccc(/C=C/c2nc(COc3ccc(CCCCn4ccnn4)cc3)co2)cc1 | 97.7 |
| COc1cc2ncnc(Nc3ccc(O)c(Br)c3)c2cc1OC | 91.1 |
| CCOc1cc2ncnc(Nc3cccc(Br)c3)c2cc1OCC | 102 |
| O=C1NC(=O)c2c1c1c3ccccc3[nH]c1c1[nH]c3cc(Br)ccc3c21 | 76.2 |

biological target: ITK (human) (UniProt Q08881); assay: as above; settings: compound 0.5 µM; ATP 10 µM

| Structure (SMILES) | residual activity [%] |
| --- | --- |
| FC(F)(F)c1ccc(/C=C/c2nc(COc3ccc(CCCCn4ccnn4)cc3)co2)cc1 | 102 |
| COc1cc2ncnc(Nc3ccc(O)c(Br)c3)c2cc1OC | 92.8 |
| CCOc1cc2ncnc(Nc3cccc(Br)c3)c2cc1OCC | 104 |
| O=C1NC(=O)c2c1c1c3ccccc3[nH]c1c1[nH]c3cc(Br)ccc3c21 | 84.1 |

biological target: KIT (human) (UniProt P10721); assay: as above; settings: compound 0.5 µM; ATP 10 µM

| Structure (SMILES) | residual activity [%] |
| --- | --- |
| FC(F)(F)c1ccc(/C=C/c2nc(COc3ccc(CCCCn4ccnn4)cc3)co2)cc1 | 98.8 |
| COc1cc2ncnc(Nc3ccc(O)c(Br)c3)c2cc1OC | 97.3 |
| CCOc1cc2ncnc(Nc3cccc(Br)c3)c2cc1OCC | 74.4 |
| O=C1NC(=O)c2c1c1c3ccccc3[nH]c1c1[nH]c3cc(Br)ccc3c21 | 128 |

biological target: MAP4K4 (human) (UniProt O95819); assay: as above; settings: compound 0.5 µM; ATP 10 µM
Sequence (O95819 whole entry, looked up): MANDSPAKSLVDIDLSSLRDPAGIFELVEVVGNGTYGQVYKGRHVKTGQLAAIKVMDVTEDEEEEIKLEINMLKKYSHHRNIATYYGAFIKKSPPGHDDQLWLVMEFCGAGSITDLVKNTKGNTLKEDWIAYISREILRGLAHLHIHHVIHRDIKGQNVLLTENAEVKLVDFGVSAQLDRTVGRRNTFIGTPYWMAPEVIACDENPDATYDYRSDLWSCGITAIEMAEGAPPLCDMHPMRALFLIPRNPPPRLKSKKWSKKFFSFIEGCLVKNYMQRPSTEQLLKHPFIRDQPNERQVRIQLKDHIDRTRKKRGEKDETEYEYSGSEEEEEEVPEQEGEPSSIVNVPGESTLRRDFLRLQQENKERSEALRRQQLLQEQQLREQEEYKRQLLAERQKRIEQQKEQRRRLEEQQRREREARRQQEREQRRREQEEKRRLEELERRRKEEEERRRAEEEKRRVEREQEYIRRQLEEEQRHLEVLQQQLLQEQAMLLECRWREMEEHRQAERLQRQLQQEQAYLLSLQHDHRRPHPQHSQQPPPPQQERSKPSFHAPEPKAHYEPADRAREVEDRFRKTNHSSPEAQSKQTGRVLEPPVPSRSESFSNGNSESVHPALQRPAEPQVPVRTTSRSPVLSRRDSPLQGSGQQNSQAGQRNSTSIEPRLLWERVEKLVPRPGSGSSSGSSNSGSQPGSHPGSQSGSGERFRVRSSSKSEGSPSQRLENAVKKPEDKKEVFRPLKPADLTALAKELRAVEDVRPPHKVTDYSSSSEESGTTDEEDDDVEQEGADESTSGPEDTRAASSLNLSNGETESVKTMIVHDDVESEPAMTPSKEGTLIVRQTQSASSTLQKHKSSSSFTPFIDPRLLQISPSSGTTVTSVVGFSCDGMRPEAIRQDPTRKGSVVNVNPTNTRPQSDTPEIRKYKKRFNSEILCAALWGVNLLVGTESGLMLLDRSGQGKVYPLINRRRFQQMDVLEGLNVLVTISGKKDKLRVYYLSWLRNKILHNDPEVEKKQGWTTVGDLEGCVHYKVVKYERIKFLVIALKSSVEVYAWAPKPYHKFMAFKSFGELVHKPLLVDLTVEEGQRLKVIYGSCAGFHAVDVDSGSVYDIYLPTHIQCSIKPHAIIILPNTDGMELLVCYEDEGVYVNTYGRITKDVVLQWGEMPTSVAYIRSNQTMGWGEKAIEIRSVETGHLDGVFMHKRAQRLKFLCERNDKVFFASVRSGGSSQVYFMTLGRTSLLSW

| Structure (SMILES) | residual activity [%] |
| --- | --- |
| FC(F)(F)c1ccc(/C=C/c2nc(COc3ccc(CCCCn4ccnn4)cc3)co2)cc1 | 95.1 |
| COc1cc2ncnc(Nc3ccc(O)c(Br)c3)c2cc1OC | 59.3 |
| CCOc1cc2ncnc(Nc3cccc(Br)c3)c2cc1OCC | 67 |
| O=C1NC(=O)c2c1c1c3ccccc3[nH]c1c1[nH]c3cc(Br)ccc3c21 | 29.3 |

biological target: MAPK13 (human) (UniProt O15264); assay: as above; settings: compound 0.5 µM; ATP 10 µM
Sequence (O15264 whole entry, looked up): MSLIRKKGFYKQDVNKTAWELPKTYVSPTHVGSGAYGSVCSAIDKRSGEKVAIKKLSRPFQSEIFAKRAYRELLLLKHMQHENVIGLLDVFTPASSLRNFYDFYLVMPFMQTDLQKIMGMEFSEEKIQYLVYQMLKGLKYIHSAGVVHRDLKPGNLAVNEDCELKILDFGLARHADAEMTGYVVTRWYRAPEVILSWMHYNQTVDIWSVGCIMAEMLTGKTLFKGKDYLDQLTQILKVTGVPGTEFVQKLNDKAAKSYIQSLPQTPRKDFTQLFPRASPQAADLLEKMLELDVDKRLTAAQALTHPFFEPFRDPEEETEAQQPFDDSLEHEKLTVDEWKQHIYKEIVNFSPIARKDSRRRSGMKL

| Structure (SMILES) | residual activity [%] |
| --- | --- |
| FC(F)(F)c1ccc(/C=C/c2nc(COc3ccc(CCCCn4ccnn4)cc3)co2)cc1 | 99.1 |
| COc1cc2ncnc(Nc3ccc(O)c(Br)c3)c2cc1OC | 102 |
| CCOc1cc2ncnc(Nc3cccc(Br)c3)c2cc1OCC | 96.7 |
| O=C1NC(=O)c2c1c1c3ccccc3[nH]c1c1[nH]c3cc(Br)ccc3c21 | 99.1 |

biological target: MAPK8 (human) (UniProt P45983); assay: as above; settings: compound 0.5 µM; ATP 10 µM
Sequence (P45983 whole entry, looked up): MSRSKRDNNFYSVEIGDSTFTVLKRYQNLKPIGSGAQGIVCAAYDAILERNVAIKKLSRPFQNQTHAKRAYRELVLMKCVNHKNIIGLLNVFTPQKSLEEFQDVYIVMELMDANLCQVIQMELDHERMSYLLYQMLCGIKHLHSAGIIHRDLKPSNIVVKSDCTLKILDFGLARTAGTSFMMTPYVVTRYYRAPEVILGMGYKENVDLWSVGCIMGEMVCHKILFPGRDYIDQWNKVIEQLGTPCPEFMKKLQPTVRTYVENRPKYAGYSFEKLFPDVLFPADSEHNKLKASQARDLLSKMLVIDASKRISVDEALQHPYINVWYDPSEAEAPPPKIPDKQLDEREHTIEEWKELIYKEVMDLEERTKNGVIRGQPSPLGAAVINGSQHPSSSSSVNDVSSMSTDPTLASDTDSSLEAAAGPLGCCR

| Structure (SMILES) | residual activity [%] |
| --- | --- |
| FC(F)(F)c1ccc(/C=C/c2nc(COc3ccc(CCCCn4ccnn4)cc3)co2)cc1 | 105 |
| COc1cc2ncnc(Nc3ccc(O)c(Br)c3)c2cc1OC | 101 |
| CCOc1cc2ncnc(Nc3cccc(Br)c3)c2cc1OCC | 90.7 |
| O=C1NC(=O)c2c1c1c3ccccc3[nH]c1c1[nH]c3cc(Br)ccc3c21 | 85.2 |

biological target: MAPK9 (human) (UniProt P45984); assay: as above; settings: compound 0.5 µM; ATP 10 µM
Sequence (P45984 whole entry, looked up): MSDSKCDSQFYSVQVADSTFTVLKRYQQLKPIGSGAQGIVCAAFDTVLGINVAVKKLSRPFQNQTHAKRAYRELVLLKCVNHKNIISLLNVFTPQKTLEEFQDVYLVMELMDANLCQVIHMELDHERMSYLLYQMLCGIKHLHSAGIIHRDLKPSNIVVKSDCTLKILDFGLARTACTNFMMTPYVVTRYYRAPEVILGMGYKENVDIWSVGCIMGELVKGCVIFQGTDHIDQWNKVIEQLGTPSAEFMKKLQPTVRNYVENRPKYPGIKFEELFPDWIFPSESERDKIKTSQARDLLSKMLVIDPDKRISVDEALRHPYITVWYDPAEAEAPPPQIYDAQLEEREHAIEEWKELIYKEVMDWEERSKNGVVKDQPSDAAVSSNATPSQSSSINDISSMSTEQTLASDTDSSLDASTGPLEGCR

| Structure (SMILES) | residual activity [%] |
| --- | --- |
| FC(F)(F)c1ccc(/C=C/c2nc(COc3ccc(CCCCn4ccnn4)cc3)co2)cc1 | 106 |
| COc1cc2ncnc(Nc3ccc(O)c(Br)c3)c2cc1OC | 88.4 |
| CCOc1cc2ncnc(Nc3cccc(Br)c3)c2cc1OCC | 98.5 |
| O=C1NC(=O)c2c1c1c3ccccc3[nH]c1c1[nH]c3cc(Br)ccc3c21 | 99.6 |
